Test results as given in patent publication US8524745B2 (Allergan, Inc., priority 2011, dated 2013).

Each molecule was assayed against T1, CCR2 (Homo sapiens, UniProt P41597) (assay: CCR2 calcium activity assay on FLIPR Tetra in HEK-Gqi5 cells stably expressing CCR2).
T1 construct: expressed in transfected cells
Assay type: cell-based
Procedure: HEK-Gqi5 cells stably expressing CCR2 were cultured in (DMEM high glucose, 10% FBS, 1% PSA, 400 μg/ml geneticin and 50 μg/ml hygromycin. Appropriate positive control chemokines (MCP-1, MIP1A or RANTES) was used as the positive control agonist for screening compound-induced calcium activity assayed on the FLIPR^Tetra. The drug plates were prepared in 384-well microplates using the EP3 and the MuItiPROBE robotic liquid handling systems. Compounds were synthesized and tested for CCR2 activity.

T1 sequence (P41597 whole entry, species assumed): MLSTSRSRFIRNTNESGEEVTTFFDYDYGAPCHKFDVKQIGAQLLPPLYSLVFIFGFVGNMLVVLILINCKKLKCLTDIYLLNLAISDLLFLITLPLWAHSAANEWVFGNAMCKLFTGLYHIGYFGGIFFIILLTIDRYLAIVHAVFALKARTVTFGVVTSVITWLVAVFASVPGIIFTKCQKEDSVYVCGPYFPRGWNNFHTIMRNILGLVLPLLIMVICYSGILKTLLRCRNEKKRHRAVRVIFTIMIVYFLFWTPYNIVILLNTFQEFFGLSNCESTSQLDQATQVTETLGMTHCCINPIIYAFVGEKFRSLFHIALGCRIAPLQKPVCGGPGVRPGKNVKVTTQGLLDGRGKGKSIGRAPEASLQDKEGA

| SMILES | CCR2 % ANTAG | IC50 |
| --- | --- | --- |
| COc1ccc(S(=O)(=O)Nc2ccc(Cl)cc2NS(=O)(=O)c2ccc3c(c2)c(=O)sn3C)cc1OC [N-(5-chloro-2-{[(3,4-dimethoxyphenyl)sulfonyl]amino}phenyl)-1-methyl-3-oxo-1,3-dihydro-2,1-benzisothiazole-5-sulfonamide] | 93% | 1020 nM |
| Cn1sc(=O)c2cc(S(=O)(=O)Nc3cc(Cl)ccc3NS(=O)(=O)c3cc(Cl)cc(Cl)c3)ccc21 [N-(5-chloro-2-{[(3,5-dichlorophenyl)sulfonyl]amino}phenyl)-1-methyl-3-oxo-1,3-dihydro-2,1-benzisothiazole-5-sulfonamide] | 94% | 2600 nM |
| Cn1sc(=O)c2cc(S(=O)(=O)Nc3cc(Cl)ccc3NS(=O)(=O)c3cccc(Cl)c3)ccc21 [N-(5-chloro-2-{[(3-chlorophenyl)sulfonyl]amino}phenyl)-1-methyl-3-oxo-1,3-dihydro-2,1-benzisothiazole-5-sulfonamide] | 91% | 493 nM |
| COc1cccc(S(=O)(=O)Nc2ccc(Cl)cc2NS(=O)(=O)c2ccc3c(c2)c(=O)sn3C)c1 [N-(5-chloro-2-{[(3-methoxyphenyl)sulfonyl]amino}phenyl)-1-methyl-3-oxo-1,3-dihydro-2,1-benzisothiazole-5-sulfonamide] | 83% | 402 nM |
| CCOc1ccc(S(=O)(=O)Nc2ccc(Cl)cc2NS(=O)(=O)c2ccc3c(c2)c(=O)sn3C)cc1 [N-(5-chloro-2-{[(4-ethoxyphenyl)sulfonyl]amino}phenyl)-1-methyl-3-oxo-1,3-dihydro-2,1-benzisothiazole-5-sulfonamide] | 84% | 2790 nM |
| Cn1sc(=O)c2cc(S(=O)(=O)Nc3cc(Cl)ccc3NS(=O)(=O)c3ccc(O)cc3)ccc21 [N-(5-chloro-2-{[(4-hydroxyphenyl)sulfonyl]amino}phenyl)-1-methyl-3-oxo-1,3-dihydro-2,1-benzisothiazole-5-sulfonamide] | 95% | 491 nM |
| CC(C)Oc1ccc(S(=O)(=O)Nc2ccc(Cl)cc2NS(=O)(=O)c2ccc3c(c2)c(=O)sn3C)cc1 [N-(5-chloro-2-{[(4-isopropoxyphenyl)sulfonyl]amino}phenyl)-1-methyl-3-oxo-1,3-dihydro-2,1-benzisothiazole-5-sulfonamide] | 72% | – |
| CC(C)c1ccc(S(=O)(=O)Nc2ccc(Cl)cc2NS(=O)(=O)c2ccc3c(c2)c(=O)sn3C)cc1 [N-(5-chloro-2-{[(4-isopropylphenyl)sulfonyl]amino}phenyl)-1-methyl-3-oxo-1,3-dihydro-2,1-benzisothiazole-5-sulfonamide] | 94% | 985 nM |
| COc1ccc(S(=O)(=O)Nc2ccc(Cl)cc2NS(=O)(=O)c2ccc3c(c2)c(=O)sn3C)cc1 [N-(5-chloro-2-{[(4-methoxyphenyl)sulfonyl]amino}phenyl)-1-methyl-3-oxo-1,3-dihydro-2,1-benzisothiazole-5-sulfonamide] | 78% | 210 nM |
| Cc1ccc(S(=O)(=O)Nc2ccc(Cl)cc2NS(=O)(=O)c2ccc3c(c2)c(=O)sn3C)cc1 [N-(5-chloro-2-{[(4-methylphenyl)sulfonyl]amino}phenyl)-1-methyl-3-oxo-1,3-dihydro-2,1-benzisothiazole-5-sulfonamide] | 95% | 680 nM |
| Cc1ccc(S(=O)(=O)Nc2ccc(Cl)cc2NS(=O)(=O)c2ccc3c(c2)c(=O)sn3C)s1 [N-(5-chloro-2-{[(5-methyl-2-thienyl)sulfonyl]amino}phenyl)-1-methyl-3-oxo-1,3-dihydro-2,1-benzisothiazole-5-sulfonamide] | 95% | 497 nM |
| Cn1sc(=O)c2cc(S(=O)(=O)Nc3cc(Cl)cc4c3OCCO4)ccc21 [N-(7-chloro-2,3-dihydro-1,4-benzodioxin-5-yl)-1-methyl-3-oxo-1,3-dihydro-2,1-benzisothiazole-5-sulfonamide] | 63% | 1670 nM |
| Cn1sc(=O)c2cc(S(=O)(=O)Nc3ccccc3NS(=O)(=O)c3cc(C(F)(F)F)cc(C(F)(F)F)c3)ccc21 [N-[2-({[3,5-bis(trifluoromethyl)phenyl]sulfonyl}amino)phenyl]-1-methyl-3-oxo-1,3-dihydro-2,1-benzisothiazole-5-sulfonamide] | 94% | 2070 nM |
| Cn1sc(=O)c2cc(S(=O)(=O)Nc3ccccc3NS(=O)(=O)c3ccc(Cl)c(C(F)(F)F)c3)ccc21 [N-[2-({[4-chloro-3-(trifluoromethyl)phenyl]sulfonyl}amino)phenyl]-1-methyl-3-oxo-1,3-dihydro-2,1-benzisothiazole-5-sulfonamide] | 100% | 412 nM |
| Cn1sc(=O)c2cc(S(=O)(=O)Nc3cc(Cl)c(Cl)cc3NS(=O)(=O)c3ccc(Cl)c(C(F)(F)F)c3)ccc21 [N-[4,5-dichloro-2-({[4-chloro-3-(trifluoromethyl)phenyl]sulfonyl}amino)phenyl]-1-methyl-3-oxo-1,3-dihydro-2,1-benzisothiazole-5-sulfonamide] | 84% | 529 nM |
| CN(C)c1cccc(S(=O)(=O)Nc2ccc(Cl)cc2NS(=O)(=O)c2ccc3c(c2)c(=O)sn3C)c1 [N-[5-chloro-2-({[3-(dimethylamino)phenyl]sulfonyl}amino)phenyl]-1-methyl-3-oxo-1,3-dihydro-2,1-benzisothiazole-5-sulfonamide] | 69% | 678 nM |
| CN(C)c1ccc(S(=O)(=O)Nc2ccc(Cl)cc2NS(=O)(=O)c2ccc3c(c2)c(=O)sn3C)cc1 [N-[5-chloro-2-({[4-(dimethylamino)phenyl]sulfonyl}amino)phenyl]-1-methyl-3-oxo-1,3-dihydro-2,1-benzisothiazole-5-sulfonamide] | 64% | 1650 nM |
| Cn1sc(=O)c2cc(S(=O)(=O)Nc3cc(Cl)ccc3NS(=O)(=O)c3ccc(Cl)c(C(F)(F)F)c3)ccc21 [N-[5-chloro-2-({[4-chloro-3-(trifluoromethyl)phenyl]sulfonyl}amino)phenyl]-1-methyl-3-oxo-1,3-dihydro-2,1-benzisothiazole-5-sulfonamide] | 88% | 240 nM |
| Cn1sc(=O)c2cc(S(=O)(=O)Nc3cccc4c3Oc3ccccc3O4)ccc21 [N-dibenzo[b,e][1,4]dioxin-1-yl-1-methyl-3-oxo-1,3-dihydro-2,1-benzisothiazole-5-sulfonamide] | 67% | 1460 nM |
| Cn1sc(=O)c2cc(S(=O)(=O)NC(C)(C)CNS(=O)(=O)c3cccs3)ccc21 [N-{1,1-dimethyl-2-[(2-thienylsulfonyl)amino]ethyl}-1-methyl-3-oxo-1,3-dihydro-2,1-benzisothiazole-5-sulfonamide] | 20% | 2490 nM |
| Cn1sc(=O)c2cc(S(=O)(=O)N3CCCC(NS(=O)(=O)c4cccs4)C3)ccc21 (centres unmarked) [N-{1-[(1-methyl-3-oxo-1,3-dihydro-2,1-benzisothiazol-5-yl)sulfonyl]piperidin-3-yl}thiophene-2-sulfonamide] | 54% | – |
| Cn1sc(=O)c2cc(S(=O)(=O)N3CCC(NS(=O)(=O)c4cccs4)C3)ccc21 (centres unmarked) [N-{1-[(1-methyl-3-oxo-1,3-dihydro-2,1-benzisothiazol-5-yl)sulfonyl]pyrrolidin-3-yl}thiophene-2-sulfonamide] | 44% | 2760 nM |
| Cn1sc(=O)c2cc(S(=O)(=O)Nc3ccccc3NS(=O)(=O)c3c[nH]cn3)ccc21 [N-{2-[(1H-imidazol-4-ylsulfonyl)amino]phenyl}-1-methyl-3-oxo-1,3-dihydro-2,1-benzisothiazole-5-sulfonamide] | 0% | > 8300 nM |
| Cn1sc(=O)c2cc(S(=O)(=O)Nc3ccccc3NS(=O)(=O)c3ccco3)ccc21 [N-{2-[(2-furylsulfonyl)amino]phenyl}-1-methyl-3-oxo-1,3-dihydro-2,1-benzisothiazole-5-sulfonamide] | 104% | 744 nM |
| Cn1sc(=O)c2cc(S(=O)(=O)Nc3ccccc3NS(=O)(=O)c3ccoc3)ccc21 [N-{2-[(3-furylsulfonyl)amino]phenyl}-1-methyl-3-oxo-1,3-dihydro-2,1-benzisothiazole-5-sulfonamide] | 73% | – |
| Cn1sc(=O)c2cc(S(=O)(=O)Nc3c(Cl)cccc3NS(=O)(=O)c3cccs3)ccc21 [N-{2-chloro-6-[(2-thienylsulfonyl)amino]phenyl}-1-methyl-3-oxo-1,3-dihydro-2,1-benzisothiazole-5-sulfonamide] | 106% | 468 nM |
| Cn1sc(=O)c2cc(S(=O)(=O)Nc3c(F)cccc3NS(=O)(=O)c3cccs3)ccc21 [N-{2-fluoro-6-[(2-thienylsulfonyl)amino]phenyl}-1-methyl-3-oxo-1,3-dihydro-2,1-benzisothiazole-5-sulfonamide] | 105% | 471 nM |
| Cn1sc(=O)c2cc(S(=O)(=O)Nc3cccc(Cl)c3NS(=O)(=O)c3cccs3)ccc21 [N-{3-chloro-2-[(2-thienylsulfonyl)amino]phenyl}-1-methyl-3-oxo-1,3-dihydro-2,1-benzisothiazole-5-sulfonamide] | 100% | 823 nM |
| COc1cccc(NS(=O)(=O)c2ccc3c(c2)c(=O)sn3C)c1NS(=O)(=O)c1cccs1 [N-{3-methoxy-2-[(2-thienylsulfonyl)amino]phenyl}-1-methyl-3-oxo-1,3-dihydro-2,1-benzisothiazole-5-sulfonamide] | 52% | – |
| Cn1sc(=O)c2cc(S(=O)(=O)Nc3cc(Cl)c(Cl)cc3NS(=O)(=O)c3cccs3)ccc21 [N-{4,5-dichloro-2-[(2-thienylsulfonyl)amino]phenyl}-1-methyl-3-oxo-1,3-dihydro-2,1-benzisothiazole-5-sulfonamide] | 99% | 361 nM |
